Laboratory results reported in article PMC8343220, “The selectivity of α‐adrenoceptor agonists for the human α1A, α1B, and α1D‐adrenoceptors” (Pharmacology Research & Perspectives, 2021).

Experiments:
[1] = test system: parental CHO cell line without any transfected receptors; test: Intracellular calcium mobilization, parent CHO cells without transfected receptors; type: cell-based, Chinese hamster
human α1A‐adrenoceptor [2] = target: T1, human α1A‐adrenoceptor (Homo sapiens, UniProt P35348); test: ERK1/2‐phosphorylation (Surefire Alphascreen), CHO‐α1A cells; type: cell-based
T1 construct: expressed in transfected cells; host or cells: CHO-K1
T1 sequence (P35348 1-466): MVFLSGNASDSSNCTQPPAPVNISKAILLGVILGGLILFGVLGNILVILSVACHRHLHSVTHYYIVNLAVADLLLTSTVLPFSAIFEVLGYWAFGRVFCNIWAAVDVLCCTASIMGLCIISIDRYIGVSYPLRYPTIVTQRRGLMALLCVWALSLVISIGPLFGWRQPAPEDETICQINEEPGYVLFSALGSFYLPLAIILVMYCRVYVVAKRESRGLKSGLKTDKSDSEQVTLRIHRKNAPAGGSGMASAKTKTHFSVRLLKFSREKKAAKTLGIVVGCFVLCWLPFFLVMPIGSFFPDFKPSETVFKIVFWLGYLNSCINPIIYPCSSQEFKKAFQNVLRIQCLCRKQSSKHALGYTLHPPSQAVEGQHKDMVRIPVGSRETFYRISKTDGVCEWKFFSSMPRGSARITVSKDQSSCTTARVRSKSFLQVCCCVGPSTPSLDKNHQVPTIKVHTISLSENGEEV

human α1B‐adrenoceptor [3] = target: T2, human α1B‐adrenoceptor (Homo sapiens, UniProt P35368); test: ERK1/2‐phosphorylation (Surefire Alphascreen), CHO‐α1B cells; type: cell-based
T2 construct: expressed in transfected cells; host or cells: CHO-K1
T2 sequence (P35368 1-520): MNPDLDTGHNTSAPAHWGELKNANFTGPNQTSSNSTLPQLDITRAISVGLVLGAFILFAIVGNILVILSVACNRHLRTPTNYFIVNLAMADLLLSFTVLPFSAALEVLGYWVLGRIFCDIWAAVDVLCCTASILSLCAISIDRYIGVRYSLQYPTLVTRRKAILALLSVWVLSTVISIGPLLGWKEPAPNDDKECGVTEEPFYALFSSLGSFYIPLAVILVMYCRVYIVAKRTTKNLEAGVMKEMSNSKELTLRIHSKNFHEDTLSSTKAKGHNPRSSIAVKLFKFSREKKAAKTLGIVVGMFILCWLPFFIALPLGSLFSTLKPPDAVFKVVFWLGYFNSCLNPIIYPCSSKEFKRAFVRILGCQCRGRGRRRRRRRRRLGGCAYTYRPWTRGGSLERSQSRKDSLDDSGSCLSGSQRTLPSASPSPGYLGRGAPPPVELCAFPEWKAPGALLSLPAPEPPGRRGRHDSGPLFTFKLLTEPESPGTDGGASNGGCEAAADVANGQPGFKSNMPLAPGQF

human α1B‐adrenoceptor [4] = target: T2, human α1B‐adrenoceptor; test: ^3H‐prazosin whole‐cell radioligand binding, CHO‐α1B cells
human α1B‐adrenoceptor [5] = target: T2, human α1B‐adrenoceptor; test: Intracellular free calcium mobilization, CHO‐α1B cells; type: cell-based
human α1A‐adrenoceptor [6] = target: T1, human α1A‐adrenoceptor; test: Intracellular free calcium mobilization, CHO‐α1A cells; type: cell-based
human α1B‐adrenoceptor [7] = target: T2, human α1B‐adrenoceptor; test: ^3H‐cAMP accumulation, CHO‐α1B cells; type: cell-based; details: CHO‐α1B cells
human α1A‐adrenoceptor [8] = target: T1, human α1A‐adrenoceptor; test: ^3H‐prazosin whole‐cell radioligand binding, CHO‐α1A cells
human α1A‐adrenoceptor [9] = target: T1, human α1A‐adrenoceptor; test: ^3H‐cAMP accumulation in the presence of 10 μM forskolin, CHO‐α1A cells; type: cell-based; details: CHO‐α1A cells; 10 μM forskolin
[10] = target: T3, human α1D‐adrenoceptor (full length) (Homo sapiens, UniProt P25100); test: ^3H‐prazosin whole‐cell radioligand binding, CHO‐α1D cells
T3 construct: human α1D‐adrenoceptor (full length) were used; expressed in transfected cells; host or cells: CHO-K1
T3 sequence (P25100 1-572): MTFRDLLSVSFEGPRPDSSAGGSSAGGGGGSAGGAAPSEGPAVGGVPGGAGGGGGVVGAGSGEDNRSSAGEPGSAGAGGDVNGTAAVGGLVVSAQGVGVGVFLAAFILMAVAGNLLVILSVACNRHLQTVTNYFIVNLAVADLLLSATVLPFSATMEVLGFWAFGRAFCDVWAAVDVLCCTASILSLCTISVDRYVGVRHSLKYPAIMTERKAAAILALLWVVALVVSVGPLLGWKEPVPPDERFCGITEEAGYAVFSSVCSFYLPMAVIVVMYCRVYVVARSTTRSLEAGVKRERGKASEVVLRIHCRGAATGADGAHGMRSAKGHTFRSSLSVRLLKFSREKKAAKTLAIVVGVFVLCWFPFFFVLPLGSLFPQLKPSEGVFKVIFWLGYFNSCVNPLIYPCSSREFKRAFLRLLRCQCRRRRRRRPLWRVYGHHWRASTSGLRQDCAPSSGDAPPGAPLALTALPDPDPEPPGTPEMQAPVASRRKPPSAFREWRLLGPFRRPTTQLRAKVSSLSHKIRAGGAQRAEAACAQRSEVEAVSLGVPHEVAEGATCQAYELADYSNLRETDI

human α1A‐adrenoceptor [11] = target: T1, human α1A‐adrenoceptor; test: ^3H‐cAMP accumulation, CHO‐α1A cells; type: cell-based; details: CHO‐α1A cells
[12] = target: T3, human α1D‐adrenoceptor (full length); test: Intracellular free calcium mobilization, CHO‐α1D cells; type: cell-based
human α1B‐adrenoceptor [13] = target: T2, human α1B‐adrenoceptor; test: ^3H‐cAMP accumulation in the presence of 10 μM forskolin, CHO‐α1B cells; type: cell-based; details: CHO‐α1B cells; in presence of forskolin
[14] = target: T3, human α1D‐adrenoceptor (full length); test: ERK1/2‐phosphorylation (Surefire Alphascreen), CHO‐α1D cells; type: cell-based

Q: How did the “Calcium response fold over basal” value [1] turn out when C[C@H](CCC(=O)O)C[C@H](C)C[C@H](C)C(=O)/C=C(\O)[C@H](C)C[C@H](C)C/C=C/[C@@H](C)[C@@H](O)[C@@H](C)[C@@H](O)C[C@@H]1CC[C@@](C)([C@H]2CC[C@@](C)([C@@H](C)O)O2)O1 [Ionomycin] was run?
A: 27.2 ± 1.2 fold over basal

Q: How did the “ERK1/2‐phosphorylation % PDBu” value (human α1A‐adrenoceptor [2]) turn out when Nc1cc(Cl)c(N=C2NCCN2)c(Cl)c1 [para‐amino‐clonidine] was run?
A: 84.5 ± 4.9%

Q: What about the “ERK1/2‐phosphorylation % PDBu” value (human α1B‐adrenoceptor [3]) of the same molecule?
A: 32.8 ± 6.9%

Q: What about the “Log KD α1B, ^3H‐prazosin whole cell binding” value (human α1B‐adrenoceptor [4]) of the same molecule?
A: −5.17 ± 0.06

Q: And the “Log KD, ^3H‐prazosin binding” value (human α1B‐adrenoceptor [4])?
A: −5.17

Q: What about the “Intracellular calcium release % ionomycin” value (human α1B‐adrenoceptor [5]) of the same molecule?
A: 33.7 ± 2.4%

Q: And the “Intracellular calcium release Log EC50” value (human α1B‐adrenoceptor [5])?
A: −7.79 ± 0.05

Q: What about the “Intracellular calcium release % ionomycin” value (human α1A‐adrenoceptor [6]) of the same molecule?
A: 52.0 ± 2.8%

Q: And the “Intracellular calcium release Log EC50” value (human α1A‐adrenoceptor [6])?
A: −8.70 ± 0.09

Q: What about the “cAMP accumulation Log EC50” value (human α1B‐adrenoceptor [7]) of the same molecule?
A: −7.48 ± 0.43

Q: And the “cAMP accumulation % forskolin” value (human α1B‐adrenoceptor [7]; % forskolin maximum response)?
A: 2.5 ± 0.6%

Q: What about the “Log KD α1A, ^3H‐prazosin whole cell binding” value (human α1A‐adrenoceptor [8]) of the same molecule?
A: −6.23 ± 0.03

Q: What about the “cAMP accumulation (in presence of forskolin) Log EC50” value (human α1A‐adrenoceptor [9]) of the same molecule?
A: −7.36 ± 0.05

Q: What about the “3H‐prazosin binding Log KD” value [10] of the same molecule?
A: −5.39

Q: What about the “Log KD α1D, ^3H‐prazosin whole cell binding” value [10] of the same molecule?
A: −5.39 ± 0.16

Q: What about the “cAMP accumulation Log EC50” value (human α1A‐adrenoceptor [11]; 5 h) of the same molecule?
A: −6.76 ± 0.03

Q: And the “cAMP accumulation % forskolin” value (human α1A‐adrenoceptor [11]; % of 10 µM forskolin response)?
A: 26.6 ± 3.2%

Q: What about the “Intracellular calcium release % ionomycin” value [12] of the same molecule?
A: No response

Q: And the “Intracellular calcium release Log EC50” value [12]?
A: No response

Q: And the “cAMP accumulation (in presence of forskolin) Log EC50” value (human α1B‐adrenoceptor [13])?
A: −7.31 ± 0.11

Q: And the “ERK1/2‐phosphorylation % PDBu” value [14]?
A: No response
